The source of these data is US5922756A, “Method of inhibiting nitric oxide synthase” (priority 1998, dated 1999).

One test deals with T1, Murine iNOS (Mus musculus, UniProt P29477).
T1 construct: purchased Cayman
As to the kind of experiment: Citrulline assay for iNOS enzyme activity ([3H]arginine to [3H]citrulline). The note with it: for remaining activity at 800 µM: read-out: citrulline formation (% of control). It counts as biochemical. As for the experimental part: Murine iNOS was extracted from the RAW 264.7 murine macrophages (from the American Type Culture Collection). The cells were stimulated with 20 units/mL cf IFNγ and 0.5 μg/mL LPS, incubated for 4 hr, and then harvested. The washed cells were lysed in 50 mM MOPS buffer (pH 7.0) which contained 1 mM EGTA, 100 mM NaCl, 0.1% 3-[(3-cholamidopropl)dimethylammonio]-2-hydroxy-1-propanesulfonate (CHAPSO), 0.2 mM phenylmethylsulfonyl fluoride, […], and 1 mM leupeptin. After passing through Sephadex G-100 (Pharmacia) to remove arginine, NADPH, and unbound tetrahydrobiopterin, the supernatant was concentrated by ultrafiltration using Centricon 30 microconcentrators (Amicon) (Forstermann et al. 1994; Wolff and Gribin 1994). Murine iNOS, 100,000 g fraction, was also purchased from Cayman.
(§1) Enzyme inhibition studies for iNOS were conducted in 50 mM HEPES buffer (pH 7.4) containing 1 mM calcium chloride, 1 mM magnesium acetate and […]. [^3 H]arginine (New England Nuclear), tetrahydrobiopterin (Biomol), and EGCG were added at the indicated concentrations. Reactions were terminated by the addition of AG 50WX8 resin (Bio-Rad) in HEPES-EDTA buffer (pH 5.5). Enzyme activity was measured by monitoring the conversion of [^3 H]arginine to [^3 H]citrulline (Hevel and Marletta 1994). Reactions were allowed to occur at 37° C. for 10-20 min since time-course analyses had shown that the reaction was linear under these conditions. Background was determined by the level of radioactivity in a reaction mixture from which iNOS was omitted. This amount was subtracted from the level detected in the experimental samples. Enzyme activity, i.e. the amount of citrulline formed, was deduced from the specific activity of the [^3 H]arginine.
Purification of tea catechin polyphenols was performed according to Xie et al. (1993). Enzyme preparation and assay were followed as described in the Methods section of Example 2.

Test [1] concerns the target T2, neuronal nitric oxide synthase (nNOS) (Mus musculus, UniProt Q9Z0J4).
T2 construct: fresh brains from BALB/c mice were homogenized; from tissue; host or cells: brain of BALB/c mice, 100,000 g fraction passed through Sephadex G-100
The experiment in a line: Citrulline assay for neuronal NOS enzyme activity (mouse brain 100,000 g fraction). It counts as biochemical. The note with it: 0.135 μM arginine, 125 μM tetrahydrobiopterin, read-out: nNOS citrulline formation inhibited by (% compared with control). Here is the method:
as §1
Purification of EGCG was performed according to Xie et al. (1993). Neuronal NOS sample preparation and enzyme activity assay were described in the Methods section of Example 2, with the following modifications. For nNOS, fresh brains from BALB/c mice were homogenized in a 5-fold volume of 50 mM Tris-HCl (pH 7.5) that contained 1 mM EDTA, 5 mM 2-mercaptoethanol and then were centrifuged at 100,000 g for 1 hr, and then the sample was passed through the Sephadex G-100 column. For the nNOS enzyme assay, 5 μM flavin mononucleotide, 5 μM flavin adenine dinucleotide, 10 μg/mL calmodulin (Calbiochem) and 1.25 mM DTT were incorporated in the reaction mixture.

Another test has as its system NO production. The note with it: LPS- and IFNγ-induced mouse peritoneal cells; Chan et al. 1995; cited from earlier work.
The subject of a further test is GAPDH mRNA expression. The experiment in a line: GAPDH (housekeeping gene) mRNA expression by RT-PCR in activated mouse peritoneal cells. The note with it: EGCG 1-10 μM, housekeeping gene control. It counts as cell-based. Here is the method: (§2) Non-elicited peritoneal exudate cells were obtained from BALB/c mice (Jackson Laboratories) and were cultured at 10^6 /mL as described by Chan et al. (1995). They were stimulated by the addition of 0.01 μg/mL LPS from Salmonella typhosa (Difco Laboratories) and 10 units/mL of IFNγ. At 4 hr after stimulation, total RNA was isolated with a Purescript RNA isolation kit (Gentra). RT-PCR was performed to determine the level of iNOS gene expression. From each sample, 300 ng of RNA was reverse-transcribed using 100 units MMLV reverse transcriptase, 20 units RNase inhibitor, 0.6 mM dNTP, and 0.4 mM Oligo(dT16) (Promega). Then PCR analyses were performed on the aliquots of the cDNA preparations for detecting iNOS and glyceraldehyse 3-phosphate dehydrogenase (GAPDH) gene expression. The reactions occurred in a 50 μL volume, for 23 cycles, with 10 mM Tris-HCl, pH 8.3, 50 mM KCl, 1.5 mM MgCl2, 0.3 mM dNTP, 2.0 units of Taq DNA polymerase, and 50 pmol of 5' and 3' primers. Murine iNOS and GAPDH 5' and 3' primers were purchased from Clontech and used according to manufactures protocols. The products were then separated on 1.6% agarose gel, stained with ethidium bromide, and the intensity of the bands was determined by scanning (Siebert and Kellogg 1995).

A further test deals with iNOS mRNA expression. The experiment in a line: iNOS gene expression by relative RT-PCR in LPS- and IFNγ-activated mouse peritoneal cells. It counts as cell-based. As to conditions: 4 hr after LPS + IFNγ stimulation, read-out: iNOS mRNA expression reduced to (% of control, iNOS/GAPDH ratio). As for the experimental part:
as §2

The mark [2] stands for this setting: 800 μM compound, 0.270 μM arginine, 125 μM tetrahydrobiopterin, 126 pmol/min iNOS.
Where [3] appears, read: read-out: citrulline formation inhibited to (% of control).

By EC50 is commonly meant the concentration needed to bring the measured effect to its halfway point. For orientation: Ki means a dissociation constant, usually derived from enzyme kinetics or from competition with a known ligand. A higher Ki goes with lower affinity.

Like-named read-outs stand apart in the source and are kept apart here.

As for `O=C(O[C@@H]1Cc2c(O)cc(O)cc2O[C@@H]1c1ccc(O)c(O)c1)c1cc(O)c(O)c(O)c1` [ECG, epicatechin-gallate], the remaining activity at 800 µM on Murine iNOS (setting [2]) stood at 68%.
For the compound `Oc1cc(O)c2c(c1)O[C@H](c1cc(O)c(O)c(O)c1)[C@H](O)C2` [EGC, epigallocatechin], the remaining activity at 800 µM at Murine iNOS (setting [2]) was 96%.
In the case of `O=C(O[C@@H]1Cc2c(O)cc(O)cc2O[C@@H]1c1cc(O)c(O)c(O)c1)c1cc(O)c(O)c(O)c1` [EGCG, Epigallocatechin-3-gallate], the inhibition at 200 µM in test [1] (200 μM EGCG) was determined as 79%. The inhibition at 400 µM in test [1] (400 μM EGCG) amounted to 51%. The inhibition at 600 µM in test [1] (600 μM EGCG) turned out to be 56%. Further, in the test on NO production, the “NO production measured by nitrite accumulation in the culture medium” value is given as “reduces NO production”. Further, on Murine iNOS, the midpoint of the response, the EC50, lay at 150 µM; the affinity corresponds to a Ki of 130 µM; the remaining activity at 800 µM turned out to be 62%. Besides, on Murine iNOS (100-600 μM EGCG, 0.068-0.270 μM arginine), the “pattern of inhibition with respect to substrate arginine (Dixon plot)” value is “competitive pattern of inhibition”. In addition, at Murine iNOS (100-600 μM EGCG, 12-125 μM tetrahydrobiopterin), the “pattern of inhibition with respect to cofactor tetrahydrobiopterin (Dixon plot)” value was “competitive manner”. For the same compound, on Murine iNOS (setting [3]), the inhibition at 50 µM is 85%, the inhibition at 250 µM turned out to be 40%, the inhibition at 500 µM amounted to 27% and the inhibition at 750 µM was 14%. Further, the “reduction in mRNA expression of GAPDH” value in the test on GAPDH mRNA expression is listed as “not observed”. For the same compound, the mrna remaining at 1 µM in the test with iNOS mRNA expression (1 μM EGCG) worked out at 82%. In addition, in the test with iNOS mRNA expression (3 μM EGCG), the mrna remaining at 3 µM was determined as 74%. The mrna remaining at 5 µM in the test on iNOS mRNA expression (5 μM EGCG) came to 41%. In the test with iNOS mRNA expression (10 μM EGCG), the mrna remaining at 10 µM was determined as 14%.
